Test results: ChEMBL document CHEMBL3792369, “Nahuoic Acids B-E, Polyhydroxy Polyketides from the Marine-Derived Streptomyces sp. SCSGAA 0027” (2016)
Calls of active or inactive are those of the source. The calls are words filed in the database; no cut-off is given here.

What follows are compounds tested against Acetylcholinesterase (Homo sapiens) (UniProt P22303) (assay: Inhibition of acetylcholinesterase (unknown origin)).
Sequence of Acetylcholinesterase (Homo sapiens) (P22303 whole entry): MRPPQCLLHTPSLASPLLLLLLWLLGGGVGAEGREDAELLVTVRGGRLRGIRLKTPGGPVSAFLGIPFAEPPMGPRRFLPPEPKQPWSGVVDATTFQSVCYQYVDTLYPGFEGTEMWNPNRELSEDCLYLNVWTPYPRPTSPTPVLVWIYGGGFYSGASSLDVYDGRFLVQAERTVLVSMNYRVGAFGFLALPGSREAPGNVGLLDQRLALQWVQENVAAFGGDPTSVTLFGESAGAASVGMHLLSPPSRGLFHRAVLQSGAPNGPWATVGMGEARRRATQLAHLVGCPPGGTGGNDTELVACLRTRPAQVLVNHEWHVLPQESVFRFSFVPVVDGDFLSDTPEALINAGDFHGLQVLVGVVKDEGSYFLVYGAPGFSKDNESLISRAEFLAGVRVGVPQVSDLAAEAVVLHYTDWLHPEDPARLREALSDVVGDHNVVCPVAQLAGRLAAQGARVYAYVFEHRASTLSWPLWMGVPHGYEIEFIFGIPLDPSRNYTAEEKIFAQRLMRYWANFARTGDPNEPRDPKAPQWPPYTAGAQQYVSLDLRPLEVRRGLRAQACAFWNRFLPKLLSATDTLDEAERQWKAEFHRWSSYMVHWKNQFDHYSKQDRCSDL

SMILES	inhibition
CC1=C[C@@]2(C)[C@@H]([C@@H](/C=C(\C)C(=O)O)[C@@H]1/C(C)=C/C[C@H](O)C[C@@H](O)[C@H](C)[C@@H](O)C(C)C)[C@@H](C)CC[C@H]2O	inactive
CC1=C[C@@]2(C)[C@H]([C@@H](C)[C@H](O)C[C@H]2O)[C@@H](/C=C(\C)C(=O)O)[C@@H]1/C(C)=C/C[C@H](O)C[C@@H](O)[C@H](C)[C@@H](O)C(C)C	inactive
CC1=C[C@@]2(C)[C@H]([C@@H](C)[C@H](O)[C@H](O)[C@H]2O)[C@@H](/C=C(\C)C(=O)O)[C@@H]1/C(C)=C/C[C@H](O)C[C@@H](O)[C@H](C)[C@@H](O)C(C)C	inactive

The compounds below were run on NCI-H1975 (assay: Cytotoxicity against human NCI-H1975 cells).
Assay type: functional, cell-based

SMILES	Activity
CC1=C[C@@]2(C)[C@@H]([C@@H](/C=C(\C)C(=O)O)[C@@H]1/C(C)=C/C[C@H](O)C[C@@H](O)[C@H](C)[C@@H](O)C(C)C)[C@@H](C)CC[C@H]2O	inactive
CC1=C[C@@]2(C)[C@H]([C@@H](C)[C@H](O)C[C@H]2O)[C@@H](/C=C(\C)C(=O)O)[C@@H]1/C(C)=C/C[C@H](O)C[C@@H](O)[C@H](C)[C@@H](O)C(C)C	inactive
CC1=C[C@@]2(C)[C@H]([C@@H](C)[C@H](O)[C@H](O)[C@H]2O)[C@@H](/C=C(\C)C(=O)O)[C@@H]1/C(C)=C/C[C@H](O)C[C@@H](O)[C@H](C)[C@@H](O)C(C)C	inactive

Each compound was assayed on K562 (assay: Cytotoxicity against human K562 cells).
Assay type: functional, cell-based

SMILES	Activity
CC1=C[C@@]2(C)[C@@H]([C@@H](/C=C(\C)C(=O)O)[C@@H]1/C(C)=C/C[C@H](O)C[C@@H](O)[C@H](C)[C@@H](O)C(C)C)[C@@H](C)CC[C@H]2O	inactive
CC1=C[C@@]2(C)[C@H]([C@@H](C)[C@H](O)C[C@H]2O)[C@@H](/C=C(\C)C(=O)O)[C@@H]1/C(C)=C/C[C@H](O)C[C@@H](O)[C@H](C)[C@@H](O)C(C)C	inactive
CC1=C[C@@]2(C)[C@H]([C@@H](C)[C@H](O)[C@H](O)[C@H]2O)[C@@H](/C=C(\C)C(=O)O)[C@@H]1/C(C)=C/C[C@H](O)C[C@@H](O)[C@H](C)[C@@H](O)C(C)C	inactive

These compounds were tested on BGC-823 (assay: Cytotoxicity against human BGC823 cells).
Assay type: functional, cell-based

SMILES	Activity
CC1=C[C@@]2(C)[C@@H]([C@@H](/C=C(\C)C(=O)O)[C@@H]1/C(C)=C/C[C@H](O)C[C@@H](O)[C@H](C)[C@@H](O)C(C)C)[C@@H](C)CC[C@H]2O	inactive
CC1=C[C@@]2(C)[C@H]([C@@H](C)[C@H](O)C[C@H]2O)[C@@H](/C=C(\C)C(=O)O)[C@@H]1/C(C)=C/C[C@H](O)C[C@@H](O)[C@H](C)[C@@H](O)C(C)C	inactive
CC1=C[C@@]2(C)[C@H]([C@@H](C)[C@H](O)[C@H](O)[C@H]2O)[C@@H](/C=C(\C)C(=O)O)[C@@H]1/C(C)=C/C[C@H](O)C[C@@H](O)[C@H](C)[C@@H](O)C(C)C	inactive

These compounds were tested on MCF7 (assay: Cytotoxicity against human MCF7 cells).
Assay type: functional, cell-based

SMILES	Activity
CC1=C[C@@]2(C)[C@@H]([C@@H](/C=C(\C)C(=O)O)[C@@H]1/C(C)=C/C[C@H](O)C[C@@H](O)[C@H](C)[C@@H](O)C(C)C)[C@@H](C)CC[C@H]2O	inactive
CC1=C[C@@]2(C)[C@H]([C@@H](C)[C@H](O)C[C@H]2O)[C@@H](/C=C(\C)C(=O)O)[C@@H]1/C(C)=C/C[C@H](O)C[C@@H](O)[C@H](C)[C@@H](O)C(C)C	inactive
CC1=C[C@@]2(C)[C@H]([C@@H](C)[C@H](O)[C@H](O)[C@H]2O)[C@@H](/C=C(\C)C(=O)O)[C@@H]1/C(C)=C/C[C@H](O)C[C@@H](O)[C@H](C)[C@@H](O)C(C)C	inactive

These compounds were tested on HL-60 (assay: Cytotoxicity against human HL60 cells).
Assay type: functional, cell-based

SMILES	Activity
CC1=C[C@@]2(C)[C@@H]([C@@H](/C=C(\C)C(=O)O)[C@@H]1/C(C)=C/C[C@H](O)C[C@@H](O)[C@H](C)[C@@H](O)C(C)C)[C@@H](C)CC[C@H]2O	inactive
CC1=C[C@@]2(C)[C@H]([C@@H](C)[C@H](O)C[C@H]2O)[C@@H](/C=C(\C)C(=O)O)[C@@H]1/C(C)=C/C[C@H](O)C[C@@H](O)[C@H](C)[C@@H](O)C(C)C	inactive
CC1=C[C@@]2(C)[C@H]([C@@H](C)[C@H](O)[C@H](O)[C@H]2O)[C@@H](/C=C(\C)C(=O)O)[C@@H]1/C(C)=C/C[C@H](O)C[C@@H](O)[C@H](C)[C@@H](O)C(C)C	inactive

Each compound was assayed on Huh-7 (assay: Cytotoxicity against human HuH7 cells).
Assay type: functional, cell-based

SMILES	Activity
CC1=C[C@@]2(C)[C@@H]([C@@H](/C=C(\C)C(=O)O)[C@@H]1/C(C)=C/C[C@H](O)C[C@@H](O)[C@H](C)[C@@H](O)C(C)C)[C@@H](C)CC[C@H]2O	inactive
CC1=C[C@@]2(C)[C@H]([C@@H](C)[C@H](O)C[C@H]2O)[C@@H](/C=C(\C)C(=O)O)[C@@H]1/C(C)=C/C[C@H](O)C[C@@H](O)[C@H](C)[C@@H](O)C(C)C	inactive
CC1=C[C@@]2(C)[C@H]([C@@H](C)[C@H](O)[C@H](O)[C@H]2O)[C@@H](/C=C(\C)C(=O)O)[C@@H]1/C(C)=C/C[C@H](O)C[C@@H](O)[C@H](C)[C@@H](O)C(C)C	inactive

These compounds were tested on Staphylococcus aureus (assay: Antibacterial activity against Staphylococcus aureus).
Assay type: functional, organism-based

SMILES	Activity
CC1=C[C@@]2(C)[C@@H]([C@@H](/C=C(\C)C(=O)O)[C@@H]1/C(C)=C/C[C@H](O)C[C@@H](O)[C@H](C)[C@@H](O)C(C)C)[C@@H](C)CC[C@H]2O	inactive
CC1=C[C@@]2(C)[C@H]([C@@H](C)[C@H](O)C[C@H]2O)[C@@H](/C=C(\C)C(=O)O)[C@@H]1/C(C)=C/C[C@H](O)C[C@@H](O)[C@H](C)[C@@H](O)C(C)C	inactive
CC1=C[C@@]2(C)[C@H]([C@@H](C)[C@H](O)[C@H](O)[C@H]2O)[C@@H](/C=C(\C)C(=O)O)[C@@H]1/C(C)=C/C[C@H](O)C[C@@H](O)[C@H](C)[C@@H](O)C(C)C	inactive

These compounds were tested on Shewanella oneidensis (assay: Antibacterial activity against Shewanella oneidensis MR-1).
Assay type: functional

SMILES	Activity
CC1=C[C@@]2(C)[C@@H]([C@@H](/C=C(\C)C(=O)O)[C@@H]1/C(C)=C/C[C@H](O)C[C@@H](O)[C@H](C)[C@@H](O)C(C)C)[C@@H](C)CC[C@H]2O	inactive
CC1=C[C@@]2(C)[C@H]([C@@H](C)[C@H](O)C[C@H]2O)[C@@H](/C=C(\C)C(=O)O)[C@@H]1/C(C)=C/C[C@H](O)C[C@@H](O)[C@H](C)[C@@H](O)C(C)C	inactive
CC1=C[C@@]2(C)[C@H]([C@@H](C)[C@H](O)[C@H](O)[C@H]2O)[C@@H](/C=C(\C)C(=O)O)[C@@H]1/C(C)=C/C[C@H](O)C[C@@H](O)[C@H](C)[C@@H](O)C(C)C	inactive

Each compound was assayed on Staphylococcus aureus (assay: Antibiofilm activity against Staphylococcus aureus assessed as inhibition of biofilm formation by crystal violet assay).
Assay type: functional, organism-based

SMILES	Activity
CC1=C[C@@]2(C)[C@@H]([C@@H](/C=C(\C)C(=O)O)[C@@H]1/C(C)=C/C[C@H](O)C[C@@H](O)[C@H](C)[C@@H](O)C(C)C)[C@@H](C)CC[C@H]2O	inactive
CC1=C[C@@]2(C)[C@H]([C@@H](C)[C@H](O)C[C@H]2O)[C@@H](/C=C(\C)C(=O)O)[C@@H]1/C(C)=C/C[C@H](O)C[C@@H](O)[C@H](C)[C@@H](O)C(C)C	inactive
CC1=C[C@@]2(C)[C@H]([C@@H](C)[C@H](O)[C@H](O)[C@H]2O)[C@@H](/C=C(\C)C(=O)O)[C@@H]1/C(C)=C/C[C@H](O)C[C@@H](O)[C@H](C)[C@@H](O)C(C)C	inactive

The compounds below were run on Shewanella oneidensis (assay: Antibiofilm activity against Shewanella oneidensis MR-1 assessed as inhibition of biofilm formation at 200 ug/ml by crystal violet assay).
Assay type: functional

SMILES	inhibition at 200 µg/mL [%]
CC1=C[C@@]2(C)[C@@H]([C@@H](/C=C(\C)C(=O)O)[C@@H]1/C(C)=C/C[C@H](O)C[C@@H](O)[C@H](C)[C@@H](O)C(C)C)[C@@H](C)CC[C@H]2O	94
CC1=C[C@@]2(C)[C@H]([C@@H](C)[C@H](O)C[C@H]2O)[C@@H](/C=C(\C)C(=O)O)[C@@H]1/C(C)=C/C[C@H](O)C[C@@H](O)[C@H](C)[C@@H](O)C(C)C	98
CC1=C[C@@]2(C)[C@H]([C@@H](C)[C@H](O)[C@H](O)[C@H]2O)[C@@H](/C=C(\C)C(=O)O)[C@@H]1/C(C)=C/C[C@H](O)C[C@@H](O)[C@H](C)[C@@H](O)C(C)C	63
